Measurements from patent US20250375417A1, “OREXIN RECEPTOR 2 (OX2R) AGONIST FOR USE IN NARCOLEPSY TYPE 1 (NT1)” (TAKEDA PHARMACEUTICAL COMPANY LIMITED, priority 2024, published 2025).

How the values were obtained:
participants with NT2 [1] = assay: MWT sleep onset latency, Phase 2 NT2 trial (Example 2); type: in vivo, human; conditions: not statistically significant (p>0.4)
Description: In some aspects of the methods described herein, the subject experiences a higher mean sleep latency (also referred to as sleep onset latency or SOL) from the Maintenance of Wakefulness Test (MWT) after a treatment period compared to an untreated subject. The MWT is a validated, objective measure that evaluates a person's ability to remain awake under soporific conditions for a defined period of time. Because there is no biological measure of wakefulness, wakefulness is measured indirectly by the inability or delayed tendency to fall asleep. This tendency to fall asleep is measured via electroencephalography-derived sleep latency in the MWT. One MWT, that includes four 40-minute wake trials, is done on each day specified in the Schedule of Activities of the trial. Sleep latency in each wake trial is recorded. Participants are required to stay awake in between the 4 MWT wake trials.
During each MWT wake trial, participants are instructed to sit in a bed or reclining chair and remain awake for as long as possible in a dimly lit room. Wake trials are ended after 40 minutes if no sleep occurs. If no sleep has been observed according to these rules, then the latency is defined as 40 minutes.
Randomization was stratified by region. Starting on the morning of Day 1, the study drug was administered at approximately the same time each day for 8 weeks. […]

participants with NT2 [2] = assay: Safety (TEAEs), long-term extension (LTE) study, NT2 participants; type: in vivo, human
Description: Eligible participants were age 18-70 years, with Epworth Sleepiness Scale (ESS) score>12 and no other current EDS-related medical conditions. Participants were randomized 1:1:1 to daily oral Compound A 2 mg twice 3 hours apart, 2 mg then 5 mg 3 hours later, or placebo. Study endpoints included change from baseline to Week 8 in mean Sleep Onset Latency on the Maintenance of Wakefulness Test (mean SOL-MWT; primary endpoint), ESS total score, and incidence of treatment-emergent adverse events (TEAEs). Participants who completed the placebo-controlled study could enroll in a ˜2-year Long Term Extension (LTE) study. LTE TEAE data up to Jan. 25, 2024 are reported.
This was a phase 2/3 multicenter, dose-blind, long-term extension (LTE) study of Compound A. Participants from controlled studies conducted with Compound A, who had up to a 3-month dosing gap between their parent study and the screening period for this study, were eligible to participate in this study.
Day 1 dosing for all participants occurred in-clinic with PK and safety assessments. Participants who were undergoing nocturnal polysomnography (nPSG) and an MWT during the final assessment of their Compound A parent study had the option of staying overnight in the clinic on Day −1 so they were already in the clinic for Day 1 the following day. […]

CCS(=O)(=O)N[C@@H]1[C@H](Cc2cccc(-c3cc(F)cc(F)c3)c2F)N(C(=O)C(C)(C)O)CC1(F)F [Compound A, N-{(2S,3R)-4,4-difluoro-1-(2-hydroxy-2-methylpropanoyl)-2-[(2,3′,5′-trifluoro[1,1′-biphenyl]-3-yl)methyl]pyrrolidin-3-yl}ethanesulfonamide]
Estimated mean change from baseline to Week 8 in SOL-MWT versus placebo (participants with NT2 [1]; 2 mg/2 mg): -0.24 min | Estimated mean change from baseline to Week 8 in SOL-MWT versus placebo (participants with NT2 [1]; 2 mg/5 mg): 2.4 min | Participants discontinued due to TEAEs (participants with NT2 [2]): 3 | Participants who experienced TEAEs (participants with NT2 [2]; treated participants (41/57), data up to Jan. 25, 2024): 71.9%
